Reference: PubChem BioAssay (NCI)
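GI50 is the concentration that inhibits growth by half. TGI marks complete inhibition of growth.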

Legend:
Assay in all cases: DTP human tumour cell line panel, 384-well format
786-0 renal = tested on: 786-0 renal
A498 renal = tested on: A498 renal
ACHN renal = tested on: ACHN renal
BT-549 breast = tested on: BT-549 breast
CAKI-1 renal = tested on: CAKI-1 renal
DU-145 prostate = tested on: DU-145 prostate
HCC-2998 colon = tested on: HCC-2998 colon
HCT-116 colon = tested on: HCT-116 colon
HCT-15 colon = tested on: HCT-15 colon
HL-60(TB) leukemia = tested on: HL-60(TB) leukemia
HOP-62 NSCLC = tested on: HOP-62 NSCLC
HOP-92 NSCLC = tested on: HOP-92 NSCLC
HS 578T breast = tested on: HS 578T breast
HT29 colon = tested on: HT29 colon
K-562 leukemia = tested on: K-562 leukemia
KM12 colon = tested on: KM12 colon
M14 melanoma = tested on: M14 melanoma
MALME-3M melanoma = tested on: MALME-3M melanoma
MCF7 breast = tested on: MCF7 breast
MDA-MB-435 melanoma = tested on: MDA-MB-435 melanoma
MDA-MB-468 breast = tested on: MDA-MB-468 breast
MOLT-4 leukemia = tested on: MOLT-4 leukemia
NCI-H226 lung = tested on: NCI-H226 lung
NCI-H23 lung = tested on: NCI-H23 lung
NCI-H322M lung = tested on: NCI-H322M lung
NCI-H522 lung = tested on: NCI-H522 lung
NCI/ADR-RES ovarian = tested on: NCI/ADR-RES ovarian
OVCAR-3 ovarian = tested on: OVCAR-3 ovarian
OVCAR-5 ovarian = tested on: OVCAR-5 ovarian
OVCAR-8 ovarian = tested on: OVCAR-8 ovarian
RPMI-8226 leukemia = tested on: RPMI-8226 leukemia
RXF 393 renal = tested on: RXF 393 renal
SF-268 CNS = tested on: SF-268 CNS
SF-295 CNS = tested on: SF-295 CNS
SF-539 CNS = tested on: SF-539 CNS
SK-MEL-2 melanoma = tested on: SK-MEL-2 melanoma
SK-MEL-28 melanoma = tested on: SK-MEL-28 melanoma
SK-OV-3 ovarian = tested on: SK-OV-3 ovarian
SN12C renal = tested on: SN12C renal
SNB-19 CNS = tested on: SNB-19 CNS
SR leukemia = tested on: SR leukemia
SW-620 colon = tested on: SW-620 colon
T-47D breast = tested on: T-47D breast
TK-10 renal = tested on: TK-10 renal
U251 glioblastoma = tested on: U251 glioblastoma
UACC-257 melanoma = tested on: UACC-257 melanoma
UACC-62 melanoma = tested on: UACC-62 melanoma

COCCOc1cnc2ccn([C@H](C)c3nnc4c(F)cc(-c5cnn(C)c5)cn34)c(=O)c2c1
GI50 ([…]-0 renal): > 100 µM
TGI (786-0 renal): > 100 µM
GI50 (A498 renal): > 100 µM
TGI (A498 renal): > 100 µM
GI50 (ACHN renal): > 100 µM
TGI (ACHN renal): > 100 µM
GI50 (BT-549 breast): > 100 µM
TGI (BT-549 breast): > 100 µM
GI50 (CAKI-1 renal): > 56.9 µM
TGI (CAKI-1 renal): > 100 µM
GI50 (DU-145 prostate): > 100 µM
TGI (DU-145 prostate): > 100 µM
GI50 (HCC-2998 colon): > 100 µM
TGI (HCC-2998 colon): > 100 µM
GI50 (HCT-116 colon): > 100 µM
TGI (HCT-116 colon): > 100 µM
GI50 (HCT-15 colon): > 100 µM
TGI (HCT-15 colon): > 100 µM
GI50 (HL-60(TB) leukemia): > 100 µM
TGI (HL-60(TB) leukemia): > 100 µM
GI50 (HOP-62 NSCLC): > 100 µM
TGI (HOP-62 NSCLC): > 100 µM
GI50 (HOP-92 NSCLC): > 100 µM
TGI (HOP-92 NSCLC): > 100 µM
GI50 (HS 578T breast): > 100 µM
TGI (HS 578T breast): > 100 µM
GI50 (HT29 colon): > 100 µM
TGI (HT29 colon): > 100 µM
GI50 (K-562 leukemia): > 100 µM
TGI (K-562 leukemia): > 100 µM
GI50 (KM12 colon): 24.5 µM
TGI (KM12 colon): > 100 µM
GI50 (M14 melanoma): > 100 µM
TGI (M14 melanoma): > 100 µM
GI50 (MALME-3M melanoma): > 100 µM
TGI (MALME-3M melanoma): > 100 µM
GI50 (MCF7 breast): > 100 µM
TGI (MCF7 breast): > 100 µM
GI50 (MDA-MB-435 melanoma): > 100 µM
TGI (MDA-MB-435 melanoma): > 100 µM
GI50 (MDA-MB-468 breast): > 100 µM
TGI (MDA-MB-468 breast): > 100 µM
GI50 (MOLT-4 leukemia): > 94 µM
TGI (MOLT-4 leukemia): > 100 µM
GI50 (NCI-H226 lung): > 100 µM
TGI (NCI-H226 lung): > 100 µM
GI50 (NCI-H23 lung): > 100 µM
TGI (NCI-H23 lung): > 100 µM
GI50 (NCI-H322M lung): > 100 µM
TGI (NCI-H322M lung): > 100 µM
GI50 (NCI-H522 lung): > 100 µM
TGI (NCI-H522 lung): > 100 µM
GI50 (NCI/ADR-RES ovarian): > 100 µM
TGI (NCI/ADR-RES ovarian): > 100 µM
GI50 (OVCAR-3 ovarian): > 100 µM
TGI (OVCAR-3 ovarian): > 100 µM
GI50 (OVCAR-5 ovarian): > 100 µM
TGI (OVCAR-5 ovarian): > 100 µM
GI50 (OVCAR-8 ovarian): > 100 µM
TGI (OVCAR-8 ovarian): > 100 µM
GI50 (RPMI-8226 leukemia): > 100 µM
TGI (RPMI-8226 leukemia): > 100 µM
GI50 (RXF 393 renal): > 100 µM
TGI (RXF 393 renal): > 100 µM
GI50 (SF-268 CNS): > 100 µM
TGI (SF-268 CNS): > 100 µM
GI50 (SF-295 CNS): 85.2 µM
TGI (SF-295 CNS): > 100 µM
GI50 (SF-539 CNS): > 100 µM
TGI (SF-539 CNS): > 100 µM
GI50 (SK-MEL-2 melanoma): > 100 µM
TGI (SK-MEL-2 melanoma): > 100 µM
GI50 (SK-MEL-28 melanoma): > 100 µM
TGI (SK-MEL-28 melanoma): > 100 µM
GI50 (SK-OV-3 ovarian): > 100 µM
TGI (SK-OV-3 ovarian): > 100 µM
GI50 (SN12C renal): > 100 µM
TGI (SN12C renal): > 100 µM
GI50 (SNB-19 CNS): > 100 µM
TGI (SNB-19 CNS): > 100 µM
GI50 (SR leukemia): 60.2 µM
TGI (SR leukemia): > 100 µM
GI50 (SW-620 colon): > 100 µM
TGI (SW-620 colon): > 100 µM
GI50 (T-47D breast): > 100 µM
TGI (T-47D breast): > 100 µM
GI50 (TK-10 renal): > 100 µM
TGI (TK-10 renal): > 100 µM
GI50 (U251 glioblastoma): > 100 µM
TGI (U251 glioblastoma): > 100 µM
GI50 (UACC-257 melanoma): > 100 µM
TGI (UACC-257 melanoma): > 100 µM
GI50 (UACC-62 melanoma): 58.1 µM
TGI (UACC-62 melanoma): > 100 µM
